Measured values taken from patent publication US10870647B2, “Imidazopyridine derivative, method for preparing same, and pharmaceutical composition containing same as active ingredient for preventing or treating cancer” (DAEGU-GYEONGBUK MEDICAL INNOVATION FOUNDATION, priority 2016, dated 2020).
Like-named read-outs stand apart in the source and are kept apart here.

What was measured:
Assay in all cases: Kinase selectivity, scanMAX Kinase assay panel (DiscoverX), % control at 1 uM
Assay type in all cases: binding
[1] = target: T1, scanMAX Kinase assay panel (Homo sapiens, UniProt O00329); conditions: PIK3CD; 1 uM; read-out: Percent Control (%)
T1 construct: purchased DiscoverX
T1 sequence (O00329 1-1044): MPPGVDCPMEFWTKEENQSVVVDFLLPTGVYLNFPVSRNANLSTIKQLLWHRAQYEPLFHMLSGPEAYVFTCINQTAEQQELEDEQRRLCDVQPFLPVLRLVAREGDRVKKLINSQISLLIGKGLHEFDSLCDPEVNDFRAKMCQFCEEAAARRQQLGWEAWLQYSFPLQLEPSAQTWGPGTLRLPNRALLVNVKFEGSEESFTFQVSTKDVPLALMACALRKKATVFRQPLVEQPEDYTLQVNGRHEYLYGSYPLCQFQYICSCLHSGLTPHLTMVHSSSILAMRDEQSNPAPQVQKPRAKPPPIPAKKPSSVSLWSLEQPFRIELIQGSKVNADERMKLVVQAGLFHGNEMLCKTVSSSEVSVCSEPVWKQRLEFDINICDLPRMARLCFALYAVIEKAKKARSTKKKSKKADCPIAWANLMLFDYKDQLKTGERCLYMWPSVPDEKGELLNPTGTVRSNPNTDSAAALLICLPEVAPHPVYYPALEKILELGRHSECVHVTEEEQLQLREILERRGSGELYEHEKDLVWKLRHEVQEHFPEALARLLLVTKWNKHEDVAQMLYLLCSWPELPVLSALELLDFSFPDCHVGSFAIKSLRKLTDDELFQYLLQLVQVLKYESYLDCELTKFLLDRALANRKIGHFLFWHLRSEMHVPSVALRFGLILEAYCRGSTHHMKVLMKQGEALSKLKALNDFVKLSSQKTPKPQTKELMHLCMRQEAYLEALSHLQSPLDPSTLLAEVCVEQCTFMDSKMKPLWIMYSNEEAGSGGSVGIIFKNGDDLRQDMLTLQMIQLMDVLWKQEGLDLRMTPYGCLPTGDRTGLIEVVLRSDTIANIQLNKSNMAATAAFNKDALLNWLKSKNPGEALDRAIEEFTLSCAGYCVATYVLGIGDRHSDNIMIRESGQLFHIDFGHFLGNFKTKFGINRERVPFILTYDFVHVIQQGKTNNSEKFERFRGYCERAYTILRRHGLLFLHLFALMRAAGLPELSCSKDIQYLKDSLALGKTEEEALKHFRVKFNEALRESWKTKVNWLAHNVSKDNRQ
In short: (§1)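 Compounds were tested at 1 uM in DMSO against each enzyme in the panel. Percent control was calculated as (compound − positive control)/(negative control − positive control) × 100, and a compound was scored active on a kinase when this value fell below 35.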

[2] = target: T2, scanMAX Kinase assay panel (Homo sapiens, UniProt Q16816); conditions: PHKG1; 1 uM; read-out: Percent Control (%)
T2 construct: purchased DiscoverX
In short: as §1

[3] = target: T3, scanMAX Kinase assay panel (Homo sapiens, UniProt P51617); conditions: IRAK1; 1 uM; read-out: Percent Control (%)
T3 construct: purchased DiscoverX
In short: as §1

[4] = target: T4, scanMAX Kinase assay panel (Homo sapiens, UniProt O15075); conditions: DCAMKL1; 1 uM; read-out: Percent Control (%)
T4 construct: purchased DiscoverX
In short: as §1

[5] = target: T5, scanMAX Kinase assay panel (Homo sapiens, UniProt P07333); conditions: 1 uM, read-out: Percent Control (%)
T5 construct: purchased DiscoverX
In short: as §1

[6] = target: T6, scanMAX Kinase assay panel (Homo sapiens, UniProt Q9NYL2); conditions: ZAK; 1 uM; read-out: Percent Control (%)
T6 construct: purchased DiscoverX
In short: as §1

[7] = target: T7, scanMAX Kinase assay panel (Homo sapiens, UniProt P00519, F317L); conditions: 1 uM, read-out: Percent Control (%)
T7 construct: purchased DiscoverX
In short: as §1

[8] = target: T8, scanMAX Kinase assay panel (Homo sapiens, UniProt Q99759); conditions: MAP3K3; 1 uM; read-out: Percent Control (%)
T8 construct: purchased DiscoverX
T8 sequence (Q99759 1-626): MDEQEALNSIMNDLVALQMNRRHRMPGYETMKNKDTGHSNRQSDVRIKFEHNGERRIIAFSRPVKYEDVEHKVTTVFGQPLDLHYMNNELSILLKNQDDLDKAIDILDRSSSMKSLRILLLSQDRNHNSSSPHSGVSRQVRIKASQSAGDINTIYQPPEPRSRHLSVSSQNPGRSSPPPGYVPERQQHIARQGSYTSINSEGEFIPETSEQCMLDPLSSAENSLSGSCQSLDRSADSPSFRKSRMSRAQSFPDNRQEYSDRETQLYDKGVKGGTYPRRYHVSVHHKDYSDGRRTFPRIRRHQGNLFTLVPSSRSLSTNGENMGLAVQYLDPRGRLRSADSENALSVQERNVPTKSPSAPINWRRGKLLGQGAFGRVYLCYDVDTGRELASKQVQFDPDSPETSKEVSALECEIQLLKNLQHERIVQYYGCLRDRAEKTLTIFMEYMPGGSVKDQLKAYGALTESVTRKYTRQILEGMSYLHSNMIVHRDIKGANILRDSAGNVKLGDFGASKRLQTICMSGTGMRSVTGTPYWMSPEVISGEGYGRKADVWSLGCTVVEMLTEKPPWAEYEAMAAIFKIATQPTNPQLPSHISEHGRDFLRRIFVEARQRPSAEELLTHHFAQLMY
In short: as §1

[9] = target: T9, scanMAX Kinase assay panel (Homo sapiens, UniProt Q13627); conditions: DYRK1A; 1 uM; read-out: Percent Control (%)
T9 construct: purchased DiscoverX
In short: as §1

[10] = target: T10, scanMAX Kinase assay panel (Homo sapiens, UniProt Q9Y5S2); conditions: MRCKB; 1 uM; read-out: Percent Control (%)
T10 construct: purchased DiscoverX
In short: as §1

[11] = target: T11, scanMAX Kinase assay panel (Homo sapiens, UniProt P17948); conditions: FLT1; 1 uM; read-out: Percent Control (%)
T11 construct: purchased DiscoverX
In short: as §1

[12] = target: T12, scanMAX Kinase assay panel (Homo sapiens, UniProt P16591); conditions: FER; 1 uM; read-out: Percent Control (%)
T12 construct: purchased DiscoverX
In short: as §1

T11 sequence (P17948 27-1338): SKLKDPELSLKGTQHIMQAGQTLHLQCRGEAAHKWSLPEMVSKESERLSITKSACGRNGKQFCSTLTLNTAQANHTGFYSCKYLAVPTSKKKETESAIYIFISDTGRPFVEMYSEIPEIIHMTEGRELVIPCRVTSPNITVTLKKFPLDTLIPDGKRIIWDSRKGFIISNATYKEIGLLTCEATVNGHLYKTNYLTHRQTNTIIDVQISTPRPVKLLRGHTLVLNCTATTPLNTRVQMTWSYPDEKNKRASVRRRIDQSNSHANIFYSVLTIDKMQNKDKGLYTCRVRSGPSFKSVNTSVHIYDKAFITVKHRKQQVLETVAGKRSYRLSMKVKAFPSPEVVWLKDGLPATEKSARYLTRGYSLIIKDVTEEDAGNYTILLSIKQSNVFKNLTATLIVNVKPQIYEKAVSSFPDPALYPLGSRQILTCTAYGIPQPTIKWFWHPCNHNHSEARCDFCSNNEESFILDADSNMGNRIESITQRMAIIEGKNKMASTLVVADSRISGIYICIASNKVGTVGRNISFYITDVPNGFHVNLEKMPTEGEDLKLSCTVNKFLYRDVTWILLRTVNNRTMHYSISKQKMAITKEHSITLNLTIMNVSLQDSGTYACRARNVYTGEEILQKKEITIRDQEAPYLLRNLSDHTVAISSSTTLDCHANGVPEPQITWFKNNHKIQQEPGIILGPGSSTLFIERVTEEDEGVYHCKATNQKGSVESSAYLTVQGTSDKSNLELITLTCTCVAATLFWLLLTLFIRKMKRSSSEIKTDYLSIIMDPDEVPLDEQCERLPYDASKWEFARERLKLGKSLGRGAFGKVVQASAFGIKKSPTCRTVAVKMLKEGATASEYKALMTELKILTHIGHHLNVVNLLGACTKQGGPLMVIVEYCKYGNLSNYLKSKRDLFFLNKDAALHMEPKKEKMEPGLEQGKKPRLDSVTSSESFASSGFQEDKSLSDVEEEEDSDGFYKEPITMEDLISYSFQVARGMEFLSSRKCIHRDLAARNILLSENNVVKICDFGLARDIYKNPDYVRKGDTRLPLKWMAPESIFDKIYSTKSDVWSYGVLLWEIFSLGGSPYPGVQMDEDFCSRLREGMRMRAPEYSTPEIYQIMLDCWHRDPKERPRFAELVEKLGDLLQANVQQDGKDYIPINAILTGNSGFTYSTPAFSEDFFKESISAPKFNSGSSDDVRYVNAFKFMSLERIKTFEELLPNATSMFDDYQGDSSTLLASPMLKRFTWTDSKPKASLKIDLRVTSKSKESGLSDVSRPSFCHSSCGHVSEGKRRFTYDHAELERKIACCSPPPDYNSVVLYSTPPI
T2 sequence (Q16816 whole entry): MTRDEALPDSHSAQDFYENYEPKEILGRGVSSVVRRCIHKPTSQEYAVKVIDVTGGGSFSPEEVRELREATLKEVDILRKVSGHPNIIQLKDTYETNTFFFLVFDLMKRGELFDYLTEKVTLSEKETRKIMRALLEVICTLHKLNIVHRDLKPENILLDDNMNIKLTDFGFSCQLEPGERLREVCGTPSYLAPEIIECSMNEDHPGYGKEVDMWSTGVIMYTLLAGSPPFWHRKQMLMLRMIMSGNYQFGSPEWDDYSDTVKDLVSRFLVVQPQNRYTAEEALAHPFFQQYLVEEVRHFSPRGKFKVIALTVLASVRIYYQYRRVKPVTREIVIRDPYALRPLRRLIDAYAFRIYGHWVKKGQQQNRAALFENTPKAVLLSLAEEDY
T3 sequence (P51617 whole entry): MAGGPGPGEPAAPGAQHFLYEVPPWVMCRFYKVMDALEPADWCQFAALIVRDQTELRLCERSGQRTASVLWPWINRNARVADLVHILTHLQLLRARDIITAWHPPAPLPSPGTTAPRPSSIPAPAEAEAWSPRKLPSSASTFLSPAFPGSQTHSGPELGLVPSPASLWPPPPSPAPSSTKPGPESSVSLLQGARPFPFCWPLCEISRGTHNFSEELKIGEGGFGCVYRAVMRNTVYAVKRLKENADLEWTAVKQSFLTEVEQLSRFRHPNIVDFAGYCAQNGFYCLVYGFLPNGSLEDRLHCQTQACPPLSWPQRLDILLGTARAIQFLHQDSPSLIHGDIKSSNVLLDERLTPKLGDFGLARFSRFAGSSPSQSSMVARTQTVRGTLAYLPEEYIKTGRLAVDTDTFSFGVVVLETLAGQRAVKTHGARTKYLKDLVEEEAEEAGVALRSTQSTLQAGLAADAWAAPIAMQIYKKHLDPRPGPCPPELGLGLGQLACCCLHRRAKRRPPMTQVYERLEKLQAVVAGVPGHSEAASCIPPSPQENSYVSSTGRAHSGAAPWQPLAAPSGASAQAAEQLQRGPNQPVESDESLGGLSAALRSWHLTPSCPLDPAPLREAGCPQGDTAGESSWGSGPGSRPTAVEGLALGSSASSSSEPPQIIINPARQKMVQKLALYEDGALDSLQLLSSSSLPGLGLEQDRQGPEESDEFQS
T4 sequence (O15075 whole entry): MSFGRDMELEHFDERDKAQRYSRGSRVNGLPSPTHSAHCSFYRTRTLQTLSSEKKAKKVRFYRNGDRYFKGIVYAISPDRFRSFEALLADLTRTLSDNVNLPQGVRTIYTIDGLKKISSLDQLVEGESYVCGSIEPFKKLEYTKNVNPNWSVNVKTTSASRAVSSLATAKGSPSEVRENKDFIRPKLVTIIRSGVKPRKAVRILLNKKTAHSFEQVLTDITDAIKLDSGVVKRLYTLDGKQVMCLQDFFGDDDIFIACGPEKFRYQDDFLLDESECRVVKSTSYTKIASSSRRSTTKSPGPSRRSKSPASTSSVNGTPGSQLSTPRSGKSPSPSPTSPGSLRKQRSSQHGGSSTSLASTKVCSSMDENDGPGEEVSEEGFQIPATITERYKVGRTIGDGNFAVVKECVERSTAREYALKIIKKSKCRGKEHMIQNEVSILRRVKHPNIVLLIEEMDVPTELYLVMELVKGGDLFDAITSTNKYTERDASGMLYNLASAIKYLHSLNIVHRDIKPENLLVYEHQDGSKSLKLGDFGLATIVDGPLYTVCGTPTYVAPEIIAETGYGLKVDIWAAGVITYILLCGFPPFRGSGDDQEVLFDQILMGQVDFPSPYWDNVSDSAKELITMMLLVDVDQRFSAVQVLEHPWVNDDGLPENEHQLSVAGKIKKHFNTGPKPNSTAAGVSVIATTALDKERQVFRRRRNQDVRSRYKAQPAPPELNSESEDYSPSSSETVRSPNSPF
T5 sequence (P07333 20-972): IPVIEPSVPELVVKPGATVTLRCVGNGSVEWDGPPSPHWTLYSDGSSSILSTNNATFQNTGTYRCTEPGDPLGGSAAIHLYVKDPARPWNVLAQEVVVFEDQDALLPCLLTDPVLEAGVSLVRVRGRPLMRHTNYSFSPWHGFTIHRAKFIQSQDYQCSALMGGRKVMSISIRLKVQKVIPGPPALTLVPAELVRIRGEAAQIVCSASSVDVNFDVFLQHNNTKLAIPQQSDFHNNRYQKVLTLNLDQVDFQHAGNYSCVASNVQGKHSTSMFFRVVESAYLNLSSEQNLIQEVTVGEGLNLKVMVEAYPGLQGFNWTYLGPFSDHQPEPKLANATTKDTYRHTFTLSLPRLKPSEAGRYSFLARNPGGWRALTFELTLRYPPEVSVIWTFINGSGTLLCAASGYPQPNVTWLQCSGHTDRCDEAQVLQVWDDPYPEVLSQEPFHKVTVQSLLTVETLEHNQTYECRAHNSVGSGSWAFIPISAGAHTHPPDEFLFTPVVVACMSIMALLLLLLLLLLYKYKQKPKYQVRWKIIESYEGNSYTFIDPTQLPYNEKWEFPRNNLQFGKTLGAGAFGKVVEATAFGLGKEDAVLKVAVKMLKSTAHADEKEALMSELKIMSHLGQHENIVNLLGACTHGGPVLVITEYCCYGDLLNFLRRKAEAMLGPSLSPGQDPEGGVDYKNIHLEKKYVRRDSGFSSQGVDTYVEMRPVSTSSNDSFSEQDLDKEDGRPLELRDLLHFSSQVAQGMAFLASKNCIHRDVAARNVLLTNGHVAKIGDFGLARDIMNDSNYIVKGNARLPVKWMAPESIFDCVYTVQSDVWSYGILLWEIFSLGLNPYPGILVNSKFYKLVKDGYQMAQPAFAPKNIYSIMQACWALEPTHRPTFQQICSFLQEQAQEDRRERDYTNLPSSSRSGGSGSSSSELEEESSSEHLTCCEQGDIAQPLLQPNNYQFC
T6 sequence (Q9NYL2 whole entry): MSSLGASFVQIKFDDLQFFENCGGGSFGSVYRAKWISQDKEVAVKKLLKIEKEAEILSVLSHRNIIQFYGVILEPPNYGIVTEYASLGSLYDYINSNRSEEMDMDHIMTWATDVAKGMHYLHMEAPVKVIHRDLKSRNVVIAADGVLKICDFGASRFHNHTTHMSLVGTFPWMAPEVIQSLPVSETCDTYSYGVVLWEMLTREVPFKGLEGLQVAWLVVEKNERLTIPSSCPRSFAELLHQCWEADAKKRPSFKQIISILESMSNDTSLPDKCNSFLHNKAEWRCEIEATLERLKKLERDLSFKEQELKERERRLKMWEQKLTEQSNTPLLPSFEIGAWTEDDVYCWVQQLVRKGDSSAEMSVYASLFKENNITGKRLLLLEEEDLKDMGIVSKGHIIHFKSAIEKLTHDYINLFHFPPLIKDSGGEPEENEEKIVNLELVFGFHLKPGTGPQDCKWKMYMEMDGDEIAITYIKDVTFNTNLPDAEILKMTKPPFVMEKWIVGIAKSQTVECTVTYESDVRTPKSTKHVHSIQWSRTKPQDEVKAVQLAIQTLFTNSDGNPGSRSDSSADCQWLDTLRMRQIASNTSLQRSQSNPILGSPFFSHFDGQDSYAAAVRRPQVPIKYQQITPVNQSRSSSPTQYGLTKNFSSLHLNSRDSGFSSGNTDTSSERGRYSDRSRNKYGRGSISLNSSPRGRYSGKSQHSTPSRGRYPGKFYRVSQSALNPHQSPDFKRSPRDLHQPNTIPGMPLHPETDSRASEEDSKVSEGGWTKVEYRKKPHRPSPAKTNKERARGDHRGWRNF

Row | Structure (SMILES) | remaining binding at 1 µM [1] [%] | remaining binding at 1 µM [2] [%] | remaining binding at 1 µM [3] [%] | remaining binding at 1 µM [4] [%] | remaining binding at 1 µM ([5]; CSF1R-autoinhibited) [%] | remaining binding at 1 µM ([5]; CSF1R) [%] | remaining binding at 1 µM [6] [%] | remaining binding at 1 µM ([7]; ABL1 (F317L)-nonphosphorylated) [%] | remaining binding at 1 µM ([7]; ABL1 (F317L)-phosphorylated) [%] | remaining binding at 1 µM [8] [%] | remaining binding at 1 µM [9] [%] | remaining binding at 1 µM [10] [%] | remaining binding at 1 µM [11] [%] | remaining binding at 1 µM [12] [%]
1 | Cc1ccc(NC(=O)C2(C(=O)Nc3ccc(F)cc3)CC2)cc1C#Cc1cnc2c(Nc3cnn(C(C)C)c3)cccn12 [Example 78] | 100 | 88 | 100 | 95 | 91 | 2 | 19 | 16 | 85 | 77 | 100 | 100 | 84 | 100
2 | Cc1cn(-c2cc(NC(=O)c3ccc(C)c(C#Cc4cnc5c(Nc6cnn(C)c6)cccn45)c3)cc(C(F)(F)F)c2)cn1 [Example 12, 4-methyl-N-(3-(4-methyl-1H-imidazol-1-yl)-5-(trifluoromethyl)phenyl)-3-((8-((1-methyl-1H-pyrazol-4-yl)amino)imidazo[1,2-a]pyridin-3-yl)ethynyl)benzamide] | 100 | 84 | 100 | 91 | 100 | 0 | 1 | 3 | 6 | 33 | 97 | 94 | 16 | 40
3 | Cc1ccc(C(=O)Nc2ccc(CN3CCN(C)CC3)c(C(F)(F)F)c2)cc1C#Cc1cnc2c(Nc3cnn(C)c3)cccn12 [Example 1, 4-methyl-3-((8-((1-methyl-1H-pyrazol-4-yl)amino)imidazo[1,2-a]pyridin-3-yl)ethynyl)-N-(4-((4-methylpiperazin-1-yl)methyl)-3-(trifluoromethyl)phenyl)benzamide] | 89 | 85 | 6 | 54 | 74 | 0 | 1 | 9 | 2 | 0 | 100 | 99 | 3 | 1
